# Experiments:
# [1] = tested on: glomerulonephritis model with mesangial proliferative nephritis; test: Effect against glomerulonephritis (anti Thy-1 antibody model); assay type: in vivo, rat; conditions: 1 mg/kg once a day, 5 days
# Method: 1.2 mg/kg of OX-7, anti Thy-1 antibody, was administered to wistar rat (male, body weight 150 g, 6 weeks old) in tail vein to prepare typical glomerulonephritis model with mesangial proliferative nephritis. After the administration of anti Thy-1 antibody, test compound (4-(5-phenyltetrazol-1-ylmethyl)-morpholine (compound 1), 1 mg/kg body weight, once a day) was suspended in 0.5% carboxymethylcellulose, was coercively administered for 5 days continuously, on sixth day sampled, kidney was obtained, and analysed pathologically (count the number of glomerular cells). In particular, cells were stained by PAS according to conventional method, the stained image was captured by 3CCD camera (Olympus), and then analyzed using softwares, Image Graver PCI (FUJI shashin film) and Mac Aspect (Mitani kabushiki kaisha). Also, biochemical analysis of blood and urine was carried out (contract clinical analysis organization: SR L).
# [2] = Vitamin B6 (PLP; pyridoxal phosphate) trapping; assay type: biochemical; conditions: 500 μM compound, 50 μM PLP, PBS
# Method: To a solution of vitamin B6, the compound of this invention is added, and after a certain period of time, an amount of vitamin B6 remained is determined.
# 4-(5-phenyltetrazol-1-ylmethyl)-morpholine (Compound 1), 5-methyl-1-(5-phenyltetrazol-1-ylmethyl)-3a,6a-dihydro-1H-pyrrolo[3,4-d][1,2,3]triazol-4,6-dione (Compound 2) and (5-phenyltetrazol-1-yl)methanol (Compound 3) as well as aminoguanidine as the positive control were each dissolved in DMSO in a designed concentration to make a sample solution. DMSO itself was used as the negative control. In addition, pyridoxal phosphate (PLP) was dissolved in purified-water to make a designed concentration. PBS was added to each of the test compound, the positive control and the negative control, to make a final concentration of 500 μM. The PLP solution as above prepared was added to each of the resultant solution to make a final concentration of 50 μM for preparation of the PLP reaction solution. Using HPLC, the amount of PLP in the PLP reaction solution was determined after 0.1 and 10 hours, from which the PLP trapping amount of each test compound was ascertained.
# The analysis of PLP using HPLC was carried out by separation with reverse-phase C18 column (4.6×250 mm, 5 μm; Waters) and by using a fluorescence detector (RF-10A; Shimazu Seisakusho; excitation wavelength, 300 nm and fluorescence wavelength, 400 nm). In the mobile phase, the flow rate was 0.6 mL/min and the concentration of buffer B was varied from 0% to 3% in 25 minutes (buffer A: 0.10% trifluoroacetic acid; buffer B: 80% acetonitrile containing 0.08% trifluoroacetic acid).
# [3] = tested on: middle cerebral artery ischemia-reperfusion model; test: Cerebroprotective action in middle cerebral artery ischemia-reperfusion model; assay type: in vivo, rat; conditions: after reperfusion 22 hrs
# pentosidine formation = test: AGEs (pentosidine) formation inhibiting effect in plasma from dialysis patients; assay type: biochemical, human
# Method: Before dialysis, blood samples were obtained from non-diabetic volunteer dialysis patients with renal failure, and fresh heparinized plasma samples were prepared therefrom Pooled plasma obtained from several patients (n=3˜5) was served to the test. 4-(5-phenyltetrazol-1-ylmethyl)-morpholine (Compound 1), 5-methyl-1-(5-phenyltetrazol-1-ylmethyl)-3a,6a-dihydro-1H-pyrrolo[3,4-d][1,2,3]triazole-4,6-dione (Compound 2) or (5-phenyltetrazol-1-yl)methanol (Compound 3) adjusted to a designed concentration ([…]), in DMSO solution (100 μl), was added to the pooled plasma (900 μl) and incubated at 37° C. for 7 days in the presence of air. Then, the amount of pentosidine was measured to estimate the suppressive effect on the glycation of protein.
# Measurement of the amount of pentosidine was made as follows: to each incubated sample (50 μL) was added an equal volume of 10% trichloroacetic acid, followed by centrifugation at 5000 g for 5 minutes; after removal of the supernatant, the pellet was washed by 5% trichloroacetic acid (300 μL); the pellet was dried under reduced pressure and then subjected to hydrolysis in 6N HCI solution (100 μL) at 110° C. under nitrogen atmosphere for 16 hours; to the hydrolysate, 5N NaOH (100 μL) and 0.5 M phosphate buffer (pH 7.4) (200 μL) were added, followed by filtration through a porefilter with a pore size of 0.5 μm and dilution with PBS. The concentration of free pentosidine was determined by reversed-phase HPLC using a fluorescence detector (RF-10A, Shimazu Seisakusho) (Miyata, T. et al.: Proc. Natl. Acad. Sci. USA, 93, 2353-2358, 1996). The effluent was monitored at 335/385 nm of excitation/emission wavelength. Synthetic pentosidine was used as the standard. The detection limit of pentosidine was 0.1 pmol/mg protein.
# The inhibiting effect was estimated by comparing with positive control (aminoguanidine and pyridoxamine (Sigma)) reacted in the same manner as 4-(5-phenyltetrazol-1-yl-methyl)-morpholine (Compound 1), 5-methyl-1-(5-phenyltetrazol-1-ylmethyl)-3a,6a-dihydro-1H-pyrrolo[3,4-d][1,2,3]triazole-4,6-dione (Compound 2) and (5-phenyltetrazol-1-yl)methanol (Compound 3).
compound,measurement,setting,value
"c1ccc(-c2nnnn2CN2CCOCC2)cc1 [Compound 1, 4-(5-phenyltetrazol-1-ylmethyl)-morpholine]",BUN,[1],BUN reducing effect
same,urinary protein,[1],urinary protein reducing effect
same,PLP trapping,[2],none
same,"Nervous condition estimation test, Ave (Bederson grade)",[3],1.8
same,Pentosidine formation,"pentosidine formation; 5 mM, plasma from dialysis patients, 37° C., 7 days, DMSO negative control 2.960",0.367 nmol/mL
same,pentosidine formation suppression,pentosidine formation; plasma from the patients with dialysis,suppressed remarkably

# Reference: US20070161691A1, “Modified-protein formation inhibitor” (TOKAI UNIVERSITY, priority 2003, published 2007)
